Results on 2 compounds are retold here after US6432682B1, “Substances KF-1040 and process for producing of the same” (The Kitasato Institute, priority 2000, dated 2002).

Data set [1] is described as follows: Acidic or alkaline nature. In kind it is physicochemical.
In data set [2] the target is T1, acid sphingomyelinase originated from human placenta (Homo sapiens, UniProt P17405).
T1 construct: an acid sphingomyelinase originated from human placenta (a product of the firm Sigma) was used as the enzyme source; purchased Sigma; host or cells: human placenta
T1 sequence (P17405 47-631): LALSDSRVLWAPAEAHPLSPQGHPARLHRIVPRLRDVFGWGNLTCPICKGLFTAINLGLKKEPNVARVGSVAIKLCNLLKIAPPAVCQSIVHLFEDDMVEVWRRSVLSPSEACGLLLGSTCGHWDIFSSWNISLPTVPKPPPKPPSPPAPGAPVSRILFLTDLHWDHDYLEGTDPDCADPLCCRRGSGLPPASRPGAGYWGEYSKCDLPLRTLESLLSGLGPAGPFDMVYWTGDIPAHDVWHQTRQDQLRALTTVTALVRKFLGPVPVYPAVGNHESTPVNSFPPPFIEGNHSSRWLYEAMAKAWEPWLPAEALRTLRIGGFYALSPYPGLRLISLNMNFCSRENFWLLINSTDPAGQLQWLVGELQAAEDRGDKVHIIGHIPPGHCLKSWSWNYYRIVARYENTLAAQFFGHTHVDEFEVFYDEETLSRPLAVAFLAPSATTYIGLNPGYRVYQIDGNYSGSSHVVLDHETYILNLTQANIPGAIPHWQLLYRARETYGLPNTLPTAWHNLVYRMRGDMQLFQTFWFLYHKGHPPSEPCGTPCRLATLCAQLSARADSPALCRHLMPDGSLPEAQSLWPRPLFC
In words: Influence on human placenta-originated acid sphingomyelinase. In kind it is biochemical. The settings on record: human placenta enzyme (Sigma), pH 5.0, 37° C., 30 minutes; read-out: concentration corresponding to 50% inhibition of acid sphingomyelinase (converted). The method, then:
The assessment of influence of the substances on human placenta-originated acidic sphingomyelinase was performed in accordance with the method of Jones et al [Biochem. Journal, 195, 373-382 (1981)] with partial modification.
Thus, an acid sphingomyelinase originated from human placenta (a product of the firm Sigma) was used as the enzyme source and thereto were added 250 mM of sodium acetate buffer solution (pH 5.0), 0.1% of NP-40 (of the firm Sigma), 25 μM [N-methyl-^3H]-sphingomyelin (0.006 μCi) and various concentrations of the substance, and the mixture was filled up to a total volume of 50 μl. After the reaction at 37° C. for 30 minutes, 200 μl of chloroform/methanol mixture (1/2 volume ratio) was added to the reaction mixture to separate the reaction product [^3H]-phosphocholine from the starting material [^3H]-sphingomyelin. The supernatant layer was taken up into a 50 μl vial. The amount of [^3H]-phosphocholine was quantitatively determined by a liquid scintillation counter to estimate the acid sphingomyelinase activity.

A further data set is described as follows: Solubility in solvents. The settings on record: in methanol, benzene, chloroform and ethyl acetate. It counts as physicochemical.
Data set [3] addresses diacylglycerol:acyltransferase. In words: Inhibitory action to rat-originated diacylglycerol:acyltransferase (rat liver microsomal fraction). In kind it is biochemical. The settings on record: 23° C., 15 minutes. The method, then:
The activity of diacylglycerol:acyltransferase was determined by the modified method of Mayorek and Bar-Tana [J. Biol. Chem., 260, 6528-6532 (1985)].
Thus, a microsomal fraction prepared from rat liver was used as the enzyme source. To a 175 mM Tris-HCl buffer (pH 8.0) containing 8 mM of MgCl2, 1 mg/ml of bovine, serum albumin and 2.5 mM of diisopropyl fluorophosphate, there were added 0.75 mM of dioleoylglycerol and 30 μM of [1-^14C]-palmitoyl-CoA (0.02 μCi) and the total volume was adjusted to 200 μl, whereupon the enzymatic reaction mixture was incubated at 23° C. for 15 minutes. The total lipids were extracted with chloroform/methanol mixture and each lipid was separated by a TLC (with Kieselgel GF254 and a developer of petroleum ether/diethyl ether/acetic acid of 80/20/1), followed by determination of the radioactivity of the triacylglycerol fraction using RADIOSCANNER (of the firm AMBIS System Inc.) to determine the diacylglycerol:acyltransferase activity.
For orientation: Microsomes from liver hold many membrane-bound enzymes, among them those of drug oxidation.

Data set [4] relates to triacylglycerol formation in Raji cell originated from human Burkitt lymphoma. In words: Inhibitory action to formation of triacylglycerol in human-originated cells (Raji cell). It counts as cell-based. The settings on record: 0.5 h, [1-14C]-oleic acid, 37° C., 30 minutes, read-out: drug concentration corresponding to 50% inhibition of triacylglycerol formation. The method, then:
The assessment of influence of the substances on the triacylglycerol formation was performed in accordance with the method of Tomoda et al [J. Biol. Chem., 266, 4214-4219 (1991)] using human-originated cells (Raji cell originated from human Burkitt lymphoma).
A Raji cell dispersion of 2.7×10^6 cells per milliliter containing 0.36 nM [1-^14C]-oleic acid (0.02 μCi) in the presence or absence of the; substance was filled up to a total volume 200 μl, whereupon the reaction was caused at 37° C. for 30 minutes. The total lipids were extracted with chloroform/methanol (2/1) mixture. The subsequent procedures were carried out in the same manner as in the above experiment (1) “inhibitive action to rat-originated diacylglycerol-acyltransferase”.
The calculation of the drug concentration corresponding to 50% inhibition of triacylglycerol formation gives the values of 10 μg/ml for the KF-1040 substance A and 10 μg/ml for the KF-1040 substance B.

Converted amounts (≈) assume the structure as drawn.

Consider `CCC(C)CC(C)CC(C)C(OC1OC(CO)C(O)C(O)C1O)C(C)C=C(C)C(O)C(C)C=C(C)C(O)C(C)C=C(C)C(=O)OCC(O)C(O)C(O)CO` (stereo not shown) [KF-1040 substance A], for which the “Acidic or alkaline nature” value in data set [1] is “neutral”. Further, the IC50 in data set [2] was 61.8 µM; in data set [4] it was 10 µg/mL (≈ 12.9 µM). The Solubility in solvents entry in the data set “Solubility in solvents” is recorded as “solule in methanol, benzene, chloroform”. Moreover, the “drug concentration corresponding to 50% inhibition of diacylglycerol:acyltransferase” value in data set [3] is 16 µg/mL.
In the case of `CCC(C)CC(C)CC(C)C(OC1OC(COC(C)=O)C(O)C(O)C1O)C(C)C=C(C)C(O)C(C)C=C(C)C(O)C(C)C=C(C)C(=O)OCC(O)C(O)C(O)CO` (stereo not shown) [KF-1040 substance B], the “Acidic or alkaline nature” value in data set [1] was “neutral”. Besides, the IC50 in data set [2] was 29.3 µM; in data set [4], 10 µg/mL (≈ 12.2 µM). For the same compound, in “Solubility in solvents”, the Solubility in solvents result is listed as “soluble in methanol, benzene, chloroform”. The “drug concentration corresponding to 50% inhibition of diacylglycerol:acyltransferase” value in data set [3] worked out at 9.0 µg/mL.
